# System: SH3P12/CAP/ponsin mRNA
# Experiment: SH3P12/CAP/ponsin mRNA level in differentiated 3T3-L1 adipocytes after BRL49653
# Format: cell-based, murine
# Conditions: BRL49653 4.5 μM for 16 hours added to well-differentiated 3T3-L1 adipocytes on day 6; 8.25 fold in the absence of BRL49653
smiles,measurement,value
"CN(CCOc1ccc(CC2SC(=O)NC2=O)cc1)c1ccccn1 (stereo not shown) [BRL49653, rosiglitazone]","level of SH3P12/CAP/ponsin mRNA, fold higher than pre-induction levels",17.6 fold

# From patent publication US20040072230A1, “Human SORBS1 genetic variations contribute to insulin resistance, obesity, type 2 diabetes, and hypertension” (priority 2002, published 2004)
